Reference: patent US8461182B2, “7-piperidinoalkyl-3, 4-Dihydroquinolone derivative” (Taisho Pharmaceutical Co., Ltd., priority 2008, dated 2013)
Structures can show the parent of a compound that is named as a salt.

Target: T1, MCH1R (Homo sapiens, UniProt Q99705)
T1 construct: IC50; other: cells stably expressing non-endogenous active MCH1R; 50 nM MCH; Fluo-4 calcium, FDSS6000
Assay: Calcium Evaluation Test for MCH1R (FDSS assay, MCH-induced intracellular calcium increase)
Assay type: cell-based
Details: cells stably expressing non-endogenous active MCH1R; 50 nM MCH; Fluo-4 calcium, FDSS6000
Source text: Calcium Evaluation Test for MCH1R
An FDSS assay can measure the intracellular calcium concentration and can evaluate the Gq-coupled receptor activity using the calcium concentration as an index. For example, the assay can determine whether an analyte is an antagonist, an inverse agonist or an agonist for a Gq-coupled receptor. The FDSS6000™ system (Hamamatsu Photonics K.K.) is designed to perform evaluation based on functionality such as measurement of intracellular calcium for high-throughput screening. Intracellular calcium release by activation of a Gq-coupled receptor can be fluorometrically measured by incorporating a calcium indicator (such as Fluo4) into cells. On the other hand, the assay cannot measure the activation of Gi- and Go-coupled receptors, because the activation is not associated with calcium signaling pathways.
Intracellular fluorescence can be rapidly and successively measured in a 96-well microplate or a 384-well microplate using a fluorometric imaging plate reader system. FDSS6000™ can simultaneously measure fluorescence in all wells sensitively, accurately and by seconds. This system is ideal for functional analysis in cells such as monitoring of an intracellular calcium flow generated within several seconds after activation of a Gq-coupled receptor.
On the day before the test, cells stably expressing non-endogenous active MCH1R were seeded into a 96-well microplate at 3×10^4 cells per well. 100 μL per well of a medium (Dulbecco's modified Eagle medium containing 10% fetal bovine serum, 2 mM glutamine, 1 mM sodium pyruvate and 0.5 mg/mL G418, pH=7.4) was used for culture. On the day of the test, the medium was removed and an assay buffer {Hank's balanced salt solution containing 20 mM HEPES, 0.5 mM probenecid, 0.05 mg/mL amaranth and 0.2% bovine serum albumin (BSA), pH=7.4} containing 2 μM Fluo-4-AM and 0.04% Pluronic F127 was added at 100 μL per well, followed by incubation in a 5% CO2 incubator at 37° C. for 30 minutes. An assay buffer containing each concentration of MCH was added at 50 μL per well, and transient changes in the intracellular calcium concentration induced by MCH were monitored using FDSS6000™ at Ex. 488 nm and Em. 530 nm for 180 seconds. In testing the antagonistic activity of the analyte, MCH was added to a final concentration of 50 nM. An inhibition curve was prepared with various concentrations of the analyte, and the concentration of the analyte inhibiting 50% of the increase in intracellular calcium when 50 nM MCH was added (IC50 value) was calculated using data analysis software Origin Ver. 6.

SMILES	IC50 [nM]
O=C1CCc2ccc(CN3CCC(NC(=O)c4cccc(F)c4)CC3)cc2N1 [Example 3, 3-fluoro-N-{1-[(2-oxo-1,2,3,4-tetrahydroquinolin-7-yl)methyl]piperidin-4-yl}benzamide]	10.9
Cc1cccc(C(=O)NC2CCN(Cc3ccc4c(c3)NC(=O)CC4)CC2)c1 [Example 8, 3-methyl-N-{1-[(2-oxo-1,2,3,4-tetrahydroquinolin-7-yl)methyl]piperidin-4-yl}benzamide]	19.2
O=C1CCc2ccc(CN3CCC(NC(=O)C(c4ccccc4)c4ccccc4)CC3)cc2N1 [Example 27, N-{1-[(2-oxo-1,2,3,4-tetrahydroquinolin-7-yl)methyl]piperidin-4-yl}-2,2-diphenylacetamide]	19.7
CC(=O)c1cccc(C(=O)NC2CCN(Cc3ccc4c(c3)NC(=O)CC4)CC2)c1 [Example 32, 3-acetyl-N-{1-[(2-oxo-1,2,3,4-tetrahydroquinolin-7-yl)methyl]piperidin-4-yl}benzamide]	10.7
N#Cc1cccc(C(=O)NC2CCN(Cc3ccc4c(c3)NC(=O)CC4)CC2)c1 [Example 37, 3-cyano-N-{1-[(2-oxo-1,2,3,4-tetrahydroquinolin-7-yl)methyl]piperidin-4-yl}benzamide]	18.3
O=C1CCc2ccc(CN3CCC(NC(=O)c4cncc(Cl)c4)CC3)cc2N1 [Example 38, 5-chloro-N-{1-[(2-oxo-1,2,3,4-tetrahydroquinolin-7-yl)methyl]piperidin-4-yl}pyridine-3-carboxamide]	18.8
COc1cccc(C(=O)NC2CCN(Cc3cc4c(cc3F)CCC(=O)N4)CC2)c1 [Example 53, N-{1-[(6-fluoro-2-oxo-1,2,3,4-tetrahydroquinolin-7-yl)methyl]piperidin-4-yl}-3-methoxybenzamide]	39.3

The remaining lines, values ahead:

IC50 [nM]	SMILES
9.08	O=C1CCc2ccc(CN3CCC(NC(=O)c4cccc(Cl)c4)CC3)cc2N1 [Example 7, 3-chloro-N-{1-[(2-oxo-1,2,3,4-tetrahydroquinolin-7-yl)methyl]piperidin-4-yl}benzamide]
6.22	COc1cccc(C(=O)NC2CCN(Cc3ccc4c(c3)NC(=O)CC4)CC2)c1 [Example 2, 3-methoxy-N-{1-[(2-oxo-1,2,3,4-tetrahydroquinolin-7-yl)methyl]piperidin-4-yl}benzamide monohydrochloride, monohydrate]
4.34	O=C1CCc2ccc(CN3CCC(NC(=O)COc4ccc(F)c(Cl)c4)CC3)cc2N1 [Example 46, 2-(3-chloro-4-fluorophenoxy)-N-{1-[(2-oxo-1,2,3,4-tetrahydroquinolin-7-yl)methyl]piperidin-4-yl}acetamide]
3.85	COc1cc(OC)cc(C(=O)NC2CCN(Cc3ccc4c(c3)NC(=O)CC4)CC2)c1 [Example 19, 3,5-dimethoxy-N-{1-[(2-oxo-1,2,3,4-tetrahydroquinolin-7-yl)methyl]piperidin-4-yl}benzamide]
1.96	O=C1CCc2ccc(CN3CCC(NC(=O)c4cc(F)c(F)c(F)c4)CC3)cc2N1 [Example 33, 3,4,5-trifluoro-N-{1-[(2-oxo-1,2,3,4-tetrahydroquinolin-7-yl)methyl]piperidin-4-yl}benzamide]
1.5	O=C1CCc2ccc(CN3CCC(NC(=O)c4ccc(F)c(F)c4)CC3)cc2N1 [Example 5, 3,4-difluoro-N-{1-[(2-oxo-1,2,3,4-tetrahydroquinolin-7-yl)methyl]piperidin-4-yl}benzamide]
1.07	CC(c1ccc2c(c1)NC(=O)CC2)N1CCC(NC(=O)c2ccc(F)c(Cl)c2)CC1 (stereo not drawn) [Example 51, 3-chloro-4-fluoro-N-{1-[1-(2-oxo-1,2,3,4-tetrahydroquinolin-7-yl)ethyl]piperidin-4-yl}benzamide]

Tested on: MCH1R
Assay: not given
Details: NON-PATENT DOCUMENT 2; cited from earlier work

SMILES	effects in experimental animal models
CN(C)c1nc(N[C@H]2CC[C@@H](NC(=O)c3ccc(F)c(F)c3)CC2)nc2ccccc12 [ATC0175]	antidepressive-like and anxiolytic-like effects
